In patent US20010049097A1 (priority 1999, published 2001):

Tests used:
[1] = molecular target: T1, mutant T7 Y639F polymerase (Escherichia phage T7, UniProt P00573, Y639F); assay type: biochemical, T7 bacteriophage; conditions: for effect on nucleotide incorporation: reactions containing 4 rNTPs and no non-canonical nucleotides; for concentration found to increase rate of Y639RNAP-catalyzed transcript extension: more than one rNTP replaced by a non-canonical nucleoside triphosphate; for concentration in excess of which generally inhibitory of activity: reaction with 4 rNTPs and plasmid templates
T1 construct: made in house; host or cells: E. coli BL21 (protease-deficient strain), plasmid pDPT7
Procedure: In general, transcription reaction mixtures comprised about 40 mM Tris-HCl or 40 mM Tris-Acetate pH 8.0, 5 mM DTT, 5-15 mM MgCl2, 0.1 mCi/ml of alpha-^32P GTP, and various combinations of rNTPs and dNTPs at initial concentrations of 0.5 mM and 1.0 mM, respectively. The reaction mixtures included supercoiled or PvuI-linearized pT75 DNA (10^−8 M) as the template and mutant T7 Y639F polymerase (10^−7 M). Reactions were typically conducted in 50 microliter reaction volumes and incubated at 37° C. Aliquots were removed after 5, 10, and 20 minutes of incubation and the reactions were quenched by adding a solution containing 95% formamide, 20 mM EDTA, 0.01% xylene cyanol. The reaction products were resolved by electrophoresis on denaturing gels containing 6% acrylamide, 0.6% bis-acrylamide, 6 M urea, 1×TBE. The gel was analyzed using a Molecular Dynamics Phosphorimager to determine the rates of incorporation of radioactive GTP into specific transcripts.
To evaluate the effect of A-form stabilizing compounds on polyamines on transcript extension by a mutant T7 RNAP, the activity of the RNAP was evaluated using standard transcription conditions (15 mM MgCl2, 40 mM Tris-HCl pH 8.0, 1 mM EDTA, and 5 mM DTT), or standard transcription reaction conditions plus varying concentrations of ethanol, methanol, trifuoro acteic acid, cobalt hexamine, spermine, or spermidine.
In addition to evaluating A-form stabilizing compounds, we examined the effects of varying the concentration of Mg^2+ and Mn^2+, substituting acetate for chloride as the main reaction counteranion, adding 0.1% tween-20, and adding pyrophosphatase.
With reference to FIG. 1A, reactions in lanes labeled ‘M’ were carried out with wild type polymerase, 4 rNTPs, and either Pvu I- or Hind III-restricted pT75 to generate RNA markers ˜579 or ˜59 bases in length, respectively. Values below each gel lane give the relative rates of synthesis of runoff or long (>˜600 base) transcripts on linearized or supercoiled templates, respectively, normalized to a value of 100 for the 4 rNTP reactions. FIG. 1A compares the relative activities of Y639F in typical polymerase reaction conditions (15 mM MgCl2, 40 mM Tris-HCl pH 8.0, 1 mM EDTA, and 5 mM DTT) and in a modified reaction mixture (40 mM Tris-acetate pH 8.0, 5 mM DTT, 1 mM EDTA, 10 mM Mg-acetate, 0.5 mM MnCl2, 8 mM spermidine, and 1 U/μl pyrophosphatase) in reactions having various combinations of rNTPs and dNTPs with supercoiled or linearized templates.
With reference to FIG. 1B, transcripts were synthesized using Hind III-cut pT75 as the template with 2′-NH2- or 2′-F NTPs as indicated replacing the corresponding rNTPs in the reaction. Reactions were conducted with 8 mM or 0 mM spermidine, as indicated. FIG. 1B compares the activity of Y639F in the presence or absence of spermidine, in reactions with 4 rNTPs or different combinations of rNTPs and 2′-F- or 2′-NH2-NTPs.

Y639F T7RNAP = Y639F T7RNAP (Escherichia phage T7, UniProt P00573, Y639F); conditions: 42 bp template
Chain of Y639F T7RNAP (P00573 whole entry Y639F): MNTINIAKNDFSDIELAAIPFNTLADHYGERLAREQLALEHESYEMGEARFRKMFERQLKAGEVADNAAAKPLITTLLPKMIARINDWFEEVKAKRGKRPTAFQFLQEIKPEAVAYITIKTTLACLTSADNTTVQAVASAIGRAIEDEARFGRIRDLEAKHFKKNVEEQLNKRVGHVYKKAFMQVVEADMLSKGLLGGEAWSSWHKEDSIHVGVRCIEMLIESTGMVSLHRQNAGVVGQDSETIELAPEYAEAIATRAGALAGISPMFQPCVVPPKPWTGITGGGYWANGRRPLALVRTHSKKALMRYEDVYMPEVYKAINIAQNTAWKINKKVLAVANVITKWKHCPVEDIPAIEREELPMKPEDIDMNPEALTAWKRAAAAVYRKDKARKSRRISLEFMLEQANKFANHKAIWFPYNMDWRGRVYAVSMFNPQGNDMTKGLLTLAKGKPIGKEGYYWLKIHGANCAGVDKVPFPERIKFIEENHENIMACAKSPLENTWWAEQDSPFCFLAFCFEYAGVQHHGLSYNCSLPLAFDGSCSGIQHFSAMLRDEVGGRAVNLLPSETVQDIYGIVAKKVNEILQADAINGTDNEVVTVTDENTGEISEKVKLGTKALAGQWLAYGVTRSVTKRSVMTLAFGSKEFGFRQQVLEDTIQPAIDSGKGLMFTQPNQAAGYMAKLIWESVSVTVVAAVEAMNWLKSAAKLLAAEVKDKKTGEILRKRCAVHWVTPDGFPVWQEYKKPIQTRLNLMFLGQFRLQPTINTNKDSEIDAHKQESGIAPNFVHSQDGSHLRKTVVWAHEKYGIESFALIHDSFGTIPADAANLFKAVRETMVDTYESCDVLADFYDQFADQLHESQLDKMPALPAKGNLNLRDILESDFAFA
Procedure: A 42 base-pair synthetic template carrying a consensus T7 promoter was tested for its effect on Y639F T7RNAP activity by measuring the synthesis of 25 base runoff transcripts in reaction mixtures containing 10 mM MgCl2, 40 mM Tris pH 8.0, 1 mM EDTA, 5 mM DTT, 0.5 mM MnCl2 and either 3 dNTP+rGTP or 4 rNTP reactions (FIG. 2A). […] The polymerase and T7 promoter were included at concentrations of about 10^−7 M. Reaction products were subjected to electrophoresis on denaturing gels containing 20% acrylamide, 2% bis-acrylamide, 6 M urea, 1×TBE.

T1 sequence (P00573 whole entry Y639F): as above

CO[C@@H]1[C@H](O)[C@@H](COP(=O)(O)OP(=O)(O)OP(=O)(O)O)O[C@H]1n1cnc2c(=O)[nH]c(N)nc21 [2′-O-Me-GTP]
synthesis of 59 base runoff transcripts, lower than in reactions with 4 rNTPs ([1]; Hind-III linearized pT75, modified buffer, single rNTP replaced): eliminated synthesis of runoff transcripts altogether

N.N.N.N.N.N.[Cl-].[Cl-].[Cl-].[Co+3] [cobalt, cobalt hexamine]
effect on nucleotide incorporation [1]: inhibited

CCO [ethanol]
effect on nucleotide incorporation [1]: inhibited

CO [methanol]
effect on nucleotide incorporation [1]: inhibited

NCCCCNCCCN [spermidine]
concentration found to increase rate of Y639RNAP-catalyzed transcript extension [1]: at least 8 mM
concentration in excess of which generally inhibitory of activity [1]: > 10 mM
effect on nucleotide incorporation [1]: minimal effects at low concentrations and were inhibitory at high concentrations

NCCCNCCCCNCCCN [spermine]
runoff synthesis relative to 8 mM spermidine (Y639F T7RNAP; 1.6 mM spermine, 3 dNTPs): 2 fold
concentrations shown to be stimulatory (Y639F T7RNAP; reactions with 3 dNTPs): up to 13 mM
concentration found to increase rate of Y639RNAP-catalyzed transcript extension [1]: at least 1.5 mM
concentration inhibiting transcription ([1]; plasmid pT75 template, all combinations of rNTPs and dNTPs): ≥ 4 mM
concentration in excess of which generally inhibitory of activity [1]: > 1 mM
effect on nucleotide incorporation [1]: minimal effects at low concentrations and were inhibitory at high concentrations
concentration optimum for stimulation of activity ([1]; reactions with non-canonical substrates (3 replaced), plasmid templates): 1 to 2 mM

O=C(O)C(F)(F)F [trifluoroacetic acid]
effect on nucleotide incorporation [1]: inhibited
